# Target: T1, human capsaicin receptor (Homo sapiens, UniProt Q8NER1)
# T1 construct: pBK-CMV expression construct encoding the full length human capsaicin receptor; expressed in transfected cells
# Test: Calcium mobilization assay, determination of antagonist activity (Example 6)
# Type: cell-based
# Details: Table II; IC50 determined as described in Example 6
# Outline: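 HEK293 clonal lines stably expressing full-length human capsaicin receptor, loaded with Fluo-3 AM in KRH buffer pH 7.4, 1–2 h at 37 °C. Compounds (1–5 μM final) preincubated 0.5–6 h at room temperature, then capsaicin at its EC50 added. FLIPR/Fluoroskan calcium signal; IC50 as 50% decrease of capsaicin response.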
# T1 sequence (Q8NER1 whole entry): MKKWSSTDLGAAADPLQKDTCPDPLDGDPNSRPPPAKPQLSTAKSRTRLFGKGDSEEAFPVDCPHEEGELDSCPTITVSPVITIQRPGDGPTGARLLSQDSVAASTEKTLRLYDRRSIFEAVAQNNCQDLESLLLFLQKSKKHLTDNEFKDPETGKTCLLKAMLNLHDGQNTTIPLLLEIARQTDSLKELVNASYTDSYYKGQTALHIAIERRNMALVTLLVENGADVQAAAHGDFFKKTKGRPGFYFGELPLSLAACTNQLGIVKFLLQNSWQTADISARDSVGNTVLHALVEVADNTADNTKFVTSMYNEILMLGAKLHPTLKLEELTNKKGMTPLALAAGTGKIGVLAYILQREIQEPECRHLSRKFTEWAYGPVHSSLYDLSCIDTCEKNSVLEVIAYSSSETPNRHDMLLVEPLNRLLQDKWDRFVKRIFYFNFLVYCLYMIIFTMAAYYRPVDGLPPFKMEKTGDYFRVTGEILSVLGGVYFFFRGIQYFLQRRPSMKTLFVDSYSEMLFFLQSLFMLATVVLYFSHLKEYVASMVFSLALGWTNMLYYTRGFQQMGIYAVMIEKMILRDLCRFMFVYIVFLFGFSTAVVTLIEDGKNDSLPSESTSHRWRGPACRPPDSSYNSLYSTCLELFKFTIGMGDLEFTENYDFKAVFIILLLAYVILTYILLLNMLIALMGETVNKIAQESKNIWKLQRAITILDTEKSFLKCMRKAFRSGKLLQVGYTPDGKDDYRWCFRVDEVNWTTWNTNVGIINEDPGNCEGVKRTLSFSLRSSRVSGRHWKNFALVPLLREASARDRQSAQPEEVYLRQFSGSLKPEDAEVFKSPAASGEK
row,SMILES,IC50 [nM]
1,"COc1cccc(-c2cc(N3CCN(c4ncccc4Cl)C[C@H]3C)nc(N3CCOCC3)n2)c1 [Example 526, 4-[4-[(2R)-4-(3-chloropyridin-2-yl)-2-methylpiperazin-1-yl]-6-(3-methoxyphenyl)pyrimidin-2-yl]morpholine]",≤ 1000
2,"COCCOc1nc(-c2ccc(F)c(Cl)c2)cc(N2CCN(c3ncccc3C(F)(F)F)CC2)n1 [Example 554, 4-(3-chloro-4-fluorophenyl)-2-(2-methoxyethoxy)-6-{4-[3-(trifluoromethyl)pyridin-2-yl]piperazin-1-yl}pyrimidine]",≤ 1000
3,"Fc1ccc(-c2cc(N3CCN(c4ncccc4C(F)(F)F)CC3)nc(OCC3CCCO3)n2)cc1Cl (centres unmarked) [Example 556, 4-(3-chloro-4-fluorophenyl)-2-(tetrahydrofuran-2-ylmethoxy)-6-{4-[3-(trifluoromethyl)pyridin-2-yl]piperazin-1-yl}pyrimidine]",≤ 1000
4,"CC(=O)NC1CCN(c2nc(-c3ccc(F)c(Cl)c3)cc(N3CCN(c4ncccc4C(F)(F)F)CC3)n2)CC1 [Example 571, N-[1-(4-(3-chloro-4-fluorophenyl)-6-{4-[3-(trifluoromethyl)pyridin-2-yl]piperazin-1-yl}pyrimidin-2-yl)piperidin-4-yl]acetamide]",≤ 1000

# Same assay, conditions: Table II; IC50 determined as described in Example 6 (antagonist activity, calcium mobilization)
row,SMILES,IC50 [nM]
1,"Cc1ccc(-c2cc(N3CCN(c4ncccc4Cl)C[C@H]3C)nc(N3CCOCC3)n2)cc1F [Example 980, 4-[4-[(2R)-4-(3-chloropyridin-2-yl)-2-methylpiperazin-1-yl]-6-(3-fluoro-4-methylphenyl)pyrimidin-2-yl]morpholine]",≤ 1000
2,"CC1CCCN1c1nc(-c2ccc(F)c(Cl)c2)cc(N2CCN(c3ncc(C#N)cn3)CC2)n1 (centres unmarked) [Example 1009, 2-{4-[6-(3-chloro-4-fluorophenyl)-2-(2-methylpyrrolidin-1-yl)pyrimidin-4-yl]piperazin-1-yl}pyrimidine-5-carbonitrile]",≤ 1000

# Same assay, conditions: Table II; determined as described in Example 6 (antagonist activity); "*" = 1 micromolar or less
row,SMILES,IC50 [nM]
1,"OCCCc1cccc(-c2cc(N3CCN(c4ncccc4C(F)(F)F)CC3)nc(N3CCOCC3)n2)c1 [Example 850, 3-[3-(2-morpholin-4-yl-6-{4-[3-(trifluoromethyl)pyridin-2-yl]piperazan-1-yl}pyrimidin-4-yl)phenyi]propan-1-ol]",≤ 1000
2,"C[C@@H]1CCCN1c1cc(-c2ccc(F)c(F)c2)nc(N2CCN(c3ncccc3Cl)C[C@@H]2C)n1 [Example 949, 2-[(2S)-4-(3-chloropyridin-2-yl)-2-methylpiperazin-1-yl]-4-(3,4-difluorophenyl)-6-[(2R)-2-methylpyrrolidin-1-yl]pyrimidine]",≤ 1000
3,"CN(C)/C=C\C(=O)c1nc(-c2ccc(F)c(F)c2)cc(N2CCN(c3ncccc3C(F)(F)F)CC2)n1 [Example 878, (2Z)-1-(4-(3,4-difluorophenyl)-6-{4-[3-(trifluoromethyl)pyridin-2-yl]piperazin-1-yl}pyrimidin-2-yl)-3-(dimethylamino)prop-2-en-1-one]",≤ 1000
4,"C[C@H]1CN(c2nccnc2Cl)CCN1c1cc(-c2ccc(Cl)c(F)c2)nc(Cl)n1 [Example 956, 2-chloro-4-(4-chloro-3-fluorophenyl)-6-[(2S)-4-(3-chloropyrazin-2-yl)-2-methylpiperazin-1-yl]pyrimidine]",≤ 1000
5,"C[C@@H]1CN(c2ncccc2F)CCN1c1cc(-c2ccc(F)c(F)c2)nc(N2CCCC2)n1 [Example 896, 4-(3,4-difluorophenyl)-6-[(2R)-4-(3-fluoropyridin-2-yl)-2-methylpiperazin-1-yl]-2-pyrrolidin-1-ylpyrimidine]",≤ 1000
6,"CC1CCCN1c1nc(-c2cccnc2)cc(N2CCN(c3ncccc3Cl)C[C@H]2C)n1 (some centres unmarked) [Example 882, 4-[4-(3-chloropyridin-2-yl)-2-methylpiperazin-1-yl]-2-(2-methylpyrrolidin-1-yl)-6-pyridin-3-ylpyrimidine]",≤ 1000
7,"C[C@@H]1CCCN1c1nc(-c2ccc(F)c(Cl)c2)cc(N2CCN(c3ncccc3Cl)C[C@@H]2C)n1 [Example 945, 4-(3-chloro-4-fluorophenyl)-6-[(2S)-4-(3-chloropyridin-2-yl)-2-methylpiperazin-1-yl]-2-[(2R)-2-methylpyrrolidin-1-yl]pyrimidine]",≤ 1000
8,"Cc1cc(-c2cc(N3CCN(c4nccnc4Cl)C[C@H]3C)nc(N3CCOCC3)n2)ccc1F [Example 916, 4-[4-[(2R)-4-(3-chloropyrazin-2-yl)-2-methylpiperazin-1-yl]-6-(4-fluoro-3-methylphenyl)pyrimidin-2-yl]morpholine]",≤ 1000
9,"CCOC(=O)CN(C)c1nc(-c2ccc(F)c(Cl)c2)cc(N2CCN(c3ncccc3C(F)(F)F)CC2)n1 [Example 812, ethyl N-(4-(3-chloro-4-fluorophenyl)-6-{4-[3-(trifluoromethyl)pyridin-2-yl]piperazin-1-yl}pyrimidin-2-yl)-N-methylglycinate]",≤ 1000
10,"Cc1cc(-c2cc(N3CCN(c4ncccc4Cl)C[C@@H]3C)nc(Cl)n2)ccc1F [Example 898, 2-chloro-4-[(2S)-4-(3-chloropyridin-2-yl)-2-methylpiperazin-1-yl]-6-(4-fluoro-3-methylphenyl)pyrimidine]",≤ 1000
11,"C[C@H]1CN(c2ncccc2Cl)CCN1c1cc(-c2ccc(Cl)c(F)c2)nc(N2CCOCC2)n1 [Example 959, 4-{4-(4-chloro-3-fluorophenyl)-6-[(2S)-4-(3-chtoropyridin-2-yl)-2-methylpiperazin-1-yl]pyrimidin-2-yl}morpholine]",≤ 1000

# Same assay, conditions: determined as described in Example 6 (calcium mobilization, antagonist activity); Table II
row,SMILES,IC50 [nM]
1,"CS(=O)(=O)Nc1cccnc1N1CCN(c2cc(-c3ccc(F)c(Cl)c3)nc(N3CCOCC3)n2)CC1 [Example 588, N-(2-{4-[6-(3-chloro-4-fluorophenyl)-2-morpholin-4-ylpyrimidin-4-yl]piperazin-1-yl}pyridin-3-yl)methanesulfonamide]",≤ 1000
2,"CCN(c1nc(-c2ccc(F)c(Cl)c2)cc(N2CCN(c3ncccc3C(F)(F)F)CC2)n1)C(C)C [Example 601, 4-(3-chloro-4-fluorophenyl)-N-ethyl-N-isopropyl-6-{4-[3-(trifluoromethyl)pyridin-2-yl]piperazin-1-yl}pyrimidin-2-amine]",≤ 1000
3,"Nc1nc(-c2ccc(F)c(Cl)c2)cc(N2CCN(c3ncccc3C(F)(F)F)CC2)n1 [Example 584, 4-(3-chloro-4-fluorophenyl)-6-{4-[3-(trifluoromethyl)pyridin-2-yl]piperazin-1-yl}pyrimidin-2-amine]",≤ 1000
4,"CCN(CC)c1nc(-c2cccc(Cl)c2)cc(N2CCN(c3ncccc3C(F)(F)F)CC2)n1 [Example 597, 4-(3-chlorophenyl)-N,N-diethyl-6-{4-[3-(trifluoromethyl)pyridin-2-yl]piperazin-1-yl}pyrimidin-2-amine]",≤ 1000
5,"C[C@@H]1CN(c2ncccc2Cl)CCN1c1cc(-c2ccc(F)c(Cl)c2)nc(N2CCOC(C)(C)C2)n1 [Example 742, 4-{4-(3-chloro-4-fluorophenyl)-6-[(2R)-4-(3-chloropyridin-2-yl)-2-methylpiperazin-1-yl]pyrimidin-2-yl}-2,2-dimethylmorpholine]",≤ 1000
6,"CC1CCCN1c1nc(-c2ccc(F)c(F)c2)cc(N2CCN(c3ncccc3C(F)(F)F)CC2)n1 (centres unmarked) [Example 704, 4-(3,4-difluorophenyl)-2-(2-methylpyrrolidin-1-yl)-6-{4-[3-(trifluoromethyl)pyridin-2-yl]piperazin-1-yl}pyrimidine]",≤ 1000

# Source: patent publication US7566712B2, “Biaryl piperazinyl-pyridine analogues” (Neurogen Corporation, priority 2003, dated 2009)
